Columns and labels:
[1] = test system: sheep; assay: Aerosolized UT-15 at high doses on baseline hemodynamics (Example III); type: in vivo
Source text: The efficacy of benzindene prostaglandins, such as UT-15, for treating pulmonary hypertension can be assessed by determining the hemodynamics associated with pulmonary hypertension. In particular, measurements of pulmonary arterial pressure (PPA), left atrial pressure (PLA), central venous pressure (PCV), systemic arterial pressure (PSYS), heart rate (HR), and cardiac output (CO) are useful in determining the effects of benzindene prostaglandins delivered by inhalation or parenterally.
Although pulmonary arterial pressure can be directly measured and is often used to quantify pulmonary arterial hypertension, PPA can be affected by 3 other variables: CO, PLA and PVR, as indicated by Equation 1: PPA=(CO*PVR)+PLA (1)
On the other hand, PVR can not be directly measured and must be calculated by the following Equation 2: PVR=(PPA−PLA)/CO (2)
Heart rate was determined by measuring the time (seconds) required for 25 heart beats to occur (t25) as indicated by the pulsations on the blood flow meter; the beats per minute (BPM) were calculated by the following equation: BPM=(25 beats/t25)*60 seconds
All pressure may be monitored by commercially available transducers, such as Model 1290A HEWLETT PACKARD™ transducer (Andover, Mass.), which is attached to VALIDYNE CD19A Carrier Dmod. Amplifiers (Northridge, Calif.). Cardiac output may be measured by a Transonic Systems T101 Ultrasonic Bloodflow Meter (Ithaca, N.Y.). The pressure and blood flow signals may be recorded on ASTROMED MT-9500 Stripchart Recorder (West Warwick, R.I.) and digitally recorded with a personal computer using Easy Data Acquisition Software (Nashville, Tenn.).
(§1) Six yearling sheep (3 males, 3 females; 21-37 kg) were fasted 18-24 hours and initially anesthetized with a short acting barbiturate (thiopental) to allow intubation of the sheep. Halothane gas anesthesia (1.5-2.5%) was then used for the surgical procedures. Via a left thoracotomy, a Transonic blood flow probe was placed around the main pulmonary artery, silastic catheters placed in the main pulmonary artery and left atrium. After approximately 7 days the sheep were reanesthetized and the left carotid artery cannulated, a Cordis Introducer Sheath inserted in the left jugular vein, and a tracheotomy made. The sheep were allowed to recover for another 3-5 days prior to experimentation. These sheep were used to allow measurement of pulmonary arterial pressure (PPA), left atrial pressure (PLA), central venous pressure (PCV), systemic arterial pressure (PSYS), heart rate (HR), and cardiac output (CO) after baseline measurements were made for a minimum of 30 minutes.
Baseline measurements consisted of 30 minutes of monitoring during vehicle/saline aerosolization (0.28 ml/min). […]

[2] = test system: sheep; assay: Intravenous and aerosolized UT-15 dose response on baseline hemodynamics (Example IV); type: in vivo; conditions: baseline conditions; for PCV relative to baseline: any dose; for CO relative to baseline: any delivery rate; for PSYS: any rate
Description: as §1, with “minutes. Two separate experiments were conducted to determine the dose response effects of intravenously infused UT-15 on baseline hemodynamics and aerosolized UT-15 on baseline hemodynamics. For the infusion experimental protocol, after a 30 minute baseline was established, UT-15 was infused intravenously at 3 rates (250, 500 and 1000 ng per kg per min). In three sheep, the infusion rates lasted for 30 minutes each, and for the other three sheep, the infusions were for 60 minutes each. […] Again, three sheep were aerosolized for 30 minutes and the other three sheep were aerosolized for 60 minutes.” for “minutes.”

[3] = 3800-5700 ng per kg per min, 90 minutes

## CCCCC[C@H](O)CC[C@@H]1[C@H]2Cc3cccc(OCC(=O)O)c3C[C@H]2C[C@H]1O [UT-15, 9-deoxy-2′,9-alpha-methano-3-oxa-4,5,6-trinor-3,7-(1′,3′-interphenylene)-13,14-dihydro-prostaglandin F1]
[1]; [3]
  PPA decrease relative to baseline: approximately 18%
  PSYS decrease relative to baseline: 7.5%
  PVR decrease relative to baseline: approximately 19%
[1]; high doses
  non-lung effects (heart rate, cardiac output): without significant non-lung effects
[2]; aerosol
  PCV relative to baseline: no statistical difference
[2]; aerosolized (mean values increased)
  PLA relative to baseline: neither intravenous nor aerosolized UT-15 caused PLA to significantly change
[2]; aerosolized, 3 rates
  heart rate: no effect
[2]; aerosolized, 250, 500, and 100 ng per kg per min
  pulmonary vascular driving pressure (PPA minus PLA) change from baseline: significant
[2]; aerosolized, all 3 delivery rates
  PVR: significant decrease
[2]; aerosolized
  CO relative to baseline: no significant changes
  PSYS: no significant effect
[2]; aerosolized, not statistically different
  PPA relative to baseline: general trend for PPA to decrease
[2]; intravenous
  PVR: no significant effect
  CO relative to baseline: no significant changes
  PCV relative to baseline: no statistical difference
  PSYS: no significant effect
[2]; intravenous 250, 500 and 1000 ng per kg per min
  heart rate: significantly increased
[2]; intravenous (mean values decreased)
  PLA relative to baseline: neither intravenous nor aerosolized UT-15 caused PLA to significantly change
[2]; intravenous, same as PCV (no statistical difference)
  PPA relative to baseline: The same effects were also observed
